Results: publication PMC5218480 (PLoS ONE, 2017)

System: MV-4-11 cells
Test: Gene expression microarray analysis (Affymetrix PrimeView) and GSEA
Type: cell-based, human
Design: RFU PODN (11730768_x_at) / Fold change /veh PODN (11730768_x_at) / RFU LINC00158 (11744669_a_at) / Fold change /veh LINC00158 (11744669_a_at) / RFU DUSP10 (11751237_a_at) / Fold change /veh DUSP10 (11751237_a_at) / RFU ID3 (11757404_x_at) / Fold change /veh ID3 (11757404_x_at) / RFU PLEKHG5 (11737974_s_at) / Fold change /veh PLEKHG5 (11737974_s_at) / RFU LRRC4B (11730491_at) / Fold change /veh LRRC4B (11730491_at) / RFU GIMAP4 (11747438_a_at) / Fold change /veh GIMAP4 (11747438_a_at) / RFU KRT8 (11758183_x_at) / Fold change /veh KRT8 (11758183_x_at) / RFU CNN1 (11734310_a_at) / Fold change /veh CNN1 (11734310_a_at) / RFU VPS37D (11726825_at) / Fold change /veh VPS37D (11726825_at) / RFU C10orf10 (11716522_x_at) / Fold change /veh C10orf10 (11716522_x_at) / RFU KIR2DL2 /// KIR2DL4 /// KIR2DL5A /// KIR2DL5B /// KIR2DS1 /// KIR2DS2 /// KIR2DS3 /// KIR2DS4 /// KIR3DL3 /// KIR3DL3 /// KIR3DS1 (11738374_at) / Fold change /veh KIR2DL2 /// KIR2DL4 /// KIR2DL5A /// KIR2DL5B /// KIR2DS1 /// KIR2DS2 /// KIR2DS3 /// KIR2DS4 /// KIR3DL3 /// KIR3DL3 /// KIR3DS1 (11738374_at) / RFU C1QL1 (11718748_at) / Fold change /veh C1QL1 (11718748_at) / RFU TMPRSS4 (11747572_a_at) / Fold change /veh TMPRSS4 (11747572_a_at) / RFU HAMP (11756126_x_at) / Fold change /veh HAMP (11756126_x_at) / RFU RNFT2 (11725882_a_at) / Fold change /veh RNFT2 (11725882_a_at) / RFU NR4A2 (11747474_a_at) / Fold change /veh NR4A2 (11747474_a_at) / RFU ABCC12 (11746883_a_at) / Fold change /veh ABCC12 (11746883_a_at) / RFU TMEM136 (11760407_x_at) / Fold change /veh TMEM136 (11760407_x_at) / RFU CLDN22 /// WWC2 (11732394_at) / Fold change /veh CLDN22 /// WWC2 (11732394_at) / RFU HLA-DPB1 (11760878_x_at) / Fold change /veh HLA-DPB1 (11760878_x_at) / RFU SPINT1 (11716480_a_at) / Fold change /veh SPINT1 (11716480_a_at) / RFU GAP43 (11754022_s_at) / Fold change /veh GAP43 (11754022_s_at) / RFU A4GNT (11735810_at) / Fold change /veh A4GNT (11735810_at) / RFU PRB3 (11715151_x_at) / Fold change /veh PRB3 (11715151_x_at) / RFU TUBB4B (11761932_at) / Fold change /veh TUBB4B (11761932_at) / RFU CAPN14 (11732068_a_at) / Fold change /veh CAPN14 (11732068_a_at) / RFU TMCC2 (11721928_a_at) / Fold change /veh TMCC2 (11721928_a_at) / RFU IRGQ (11745062_a_at) / Fold change /veh IRGQ (11745062_a_at) / RFU FAM174B (11720279_a_at) / Fold change /veh FAM174B (11720279_a_at) / RFU TMPRSS4 (11748680_a_at) / Fold change /veh TMPRSS4 (11748680_a_at) / RFU FAM212B (11763350_a_at) / Fold change /veh FAM212B (11763350_a_at) / RFU PLEKHG5 (11743358_a_at) / Fold change /veh PLEKHG5 (11743358_a_at) / RFU ZSCAN30 (11745921_a_at) / Fold change /veh ZSCAN30 (11745921_a_at) / RFU CMKLR1 (11741424_a_at) / Fold change /veh CMKLR1 (11741424_a_at) / RFU LOC101060620 /// MAPK8IP1 (11723275_at) / Fold change /veh LOC101060620 /// MAPK8IP1 (11723275_at) / RFU SPTSSB (11747773_x_at) / Fold change /veh SPTSSB (11747773_x_at) / RFU PRSS12 (11739890_at) / Fold change /veh PRSS12 (11739890_at) / RFU BIN1 (11741810_x_at) / Fold change /veh BIN1 (11741810_x_at) / RFU WNT11 (11732464_a_at) / Fold change /veh WNT11 (11732464_a_at) / RFU C10orf10 (11716521_a_at) / Fold change /veh C10orf10 (11716521_a_at) / RFU C5orf56 (11738089_at) / Fold change /veh C5orf56 (11738089_at) / RFU CYB561 (11721691_x_at) / Fold change /veh CYB561 (11721691_x_at) / RFU ANKRD19P (11752326_a_at) / Fold change /veh ANKRD19P (11752326_a_at) / RFU OR2T12 /// OR2T33 /// OR2T8 (11738714_s_at) / Fold change /veh OR2T12 /// OR2T33 /// OR2T8 (11738714_s_at) / RFU VCAN (11748164_a_at) / Fold change /veh VCAN (11748164_a_at) / RFU JSRP1 (11732532_at) / Fold change /veh JSRP1 (11732532_at) / RFU KRTAP10-11 (11738290_x_at) / Fold change /veh KRTAP10-11 (11738290_x_at) / RFU MYO3A (11730013_a_at) / Fold change /veh MYO3A (11730013_a_at) / RFU EBF3 (11725865_a_at) / Fold change /veh EBF3 (11725865_a_at) / RFU CAMK2N1 (11719241_x_at) / Fold change /veh CAMK2N1 (11719241_x_at) / RFU C5orf56 (11738088_a_at) / Fold change /veh C5orf56 (11738088_a_at) / RFU OLFML3 (11715873_a_at) / Fold change /veh OLFML3 (11715873_a_at) / RFU LOC100653217 /// NTM (11731650_a_at) / Fold change /veh LOC100653217 /// NTM (11731650_a_at) / RFU MAPK11 (11762145_a_at) / Fold change /veh MAPK11 (11762145_a_at) / RFU FIZ1 (11724087_x_at) / Fold change /veh FIZ1 (11724087_x_at) / RFU OASL (11726364_x_at) / Fold change /veh OASL (11726364_x_at) / RFU SOX15 (11748057_x_at) / Fold change /veh SOX15 (11748057_x_at) / RFU CD79A (11719716_a_at) / Fold change /veh CD79A (11719716_a_at) / RFU HIST1H1D (11736915_at) / Fold change /veh HIST1H1D (11736915_at) / RFU CASKIN2 (11723855_a_at) / Fold change /veh CASKIN2 (11723855_a_at) / RFU LOC730098 (11760151_x_at) / Fold change /veh LOC730098 (11760151_x_at) / RFU OR4N2 (11742367_at) / Fold change /veh OR4N2 (11742367_at) / RFU PRRT2 (11749266_a_at) / Fold change /veh PRRT2 (11749266_a_at) / RFU SNX32 (11753110_a_at) / Fold change /veh SNX32 (11753110_a_at) / RFU CDHR5 (11726645_a_at) / Fold change /veh CDHR5 (11726645_a_at) / RFU RCAN1 (11760418_a_at) / Fold change /veh RCAN1 (11760418_a_at) / RFU FAM167A (11723789_a_at) / Fold change /veh FAM167A (11723789_a_at) / RFU FAM26E (11764081_at) / Fold change /veh FAM26E (11764081_at) / RFU ISYNA1 (11749810_s_at) / Fold change /veh ISYNA1 (11749810_s_at) / RFU ACY1 (11761880_at) / Fold change /veh ACY1 (11761880_at) / RFU 11764098_at / Fold change /veh 11764098_at / RFU SAMD14 (11745864_x_at) / Fold change /veh SAMD14 (11745864_x_at) / RFU NPB (11741838_a_at) / Fold change /veh NPB (11741838_a_at) / RFU TMPRSS6 (11731388_a_at) / Fold change /veh TMPRSS6 (11731388_a_at) / RFU KRTAP10-2 (11738614_at) / Fold change /veh KRTAP10-2 (11738614_at) / RFU ARHGAP8 /// PRR5-ARHGAP8 (11727945_x_at) / Fold change /veh ARHGAP8 /// PRR5-ARHGAP8 (11727945_x_at) / RFU KRTAP5-7 /// NADSYN1 (11734609_at) / Fold change /veh KRTAP5-7 /// NADSYN1 (11734609_at) / RFU RASL12 (11751679_a_at) / Fold change /veh RASL12 (11751679_a_at) / RFU CDKN2B (11736163_a_at) / Fold change /veh CDKN2B (11736163_a_at) / RFU PRF1 (11729649_at) / Fold change /veh PRF1 (11729649_at) / RFU, ZNF638 /// ZNF638-IT1 / Fold change vs veh, ZNF638 /// ZNF638-IT1 / RFU, PANK3 / Fold change vs veh, PANK3 / RFU, SH3YL1 / Fold change vs veh, SH3YL1 / RFU, ZEB2 / Fold change vs veh, ZEB2 / RFU, NRIP1 / Fold change vs veh, NRIP1 / RFU, PTTG1IP / Fold change vs veh, PTTG1IP / RFU, CAPN2 / Fold change vs veh, CAPN2 / RFU, MED14 / Fold change vs veh, MED14 / RFU, SNORA58 / Fold change vs veh, SNORA58 / RFU, C1orf63 / Fold change vs veh, C1orf63 / RFU, LRRFIP1 / Fold change vs veh, LRRFIP1 / RFU, NDUFAF7 / Fold change vs veh, NDUFAF7 / RFU, SLC12A2 / Fold change vs veh, SLC12A2 / RFU, IBTK / Fold change vs veh, IBTK / RFU, ESF1 / Fold change vs veh, ESF1 / Fold change vs veh, TMEM50B / RFU, TAOK1 / Fold change vs veh, TAOK1 / RFU, ACBD3 / Fold change vs veh, ACBD3 / RFU, TMA16 / Fold change vs veh, TMA16 / RFU, RWDD3 / Fold change vs veh, RWDD3 / RFU, BCAT1 / Fold change vs veh, BCAT1 / RFU, EDEM3 / Fold change vs veh, EDEM3 / RFU, TMEM33 / Fold change vs veh, TMEM33 / RFU, WDR75 / Fold change vs veh, WDR75 / RFU, AHCTF1 / Fold change vs veh, AHCTF1 / RFU, TFRC / Fold change vs veh, TFRC / RFU, ZDHHC17 / Fold change vs veh, ZDHHC17 / RFU, NOM1 / Fold change vs veh, NOM1 / RFU, ARL8B / Fold change vs veh, ARL8B / RFU, ZBTB11 / Fold change vs veh, ZBTB11 / RFU, TAMM41 / Fold change vs veh, TAMM41 / RFU, KIAA1704 /// LOC100996395 / Fold change vs veh, KIAA1704 /// LOC100996395 / RFU, ING1 / Fold change vs veh, ING1 / RFU, TRMT61B / Fold change vs veh, TRMT61B / RFU, FUBP3 / Fold change vs veh, FUBP3 / RFU, TP53 / Fold change vs veh, TP53 / RFU, TNKS2 / Fold change vs veh, TNKS2 / RFU, ZFP14 / Fold change vs veh, ZFP14 / RFU, ACTR2 / Fold change vs veh, ACTR2 / RFU, PPP3R1 / Fold change vs veh, PPP3R1 / RFU, PIK3R1 / Fold change vs veh, PIK3R1 / RFU, HNRNPA1 / Fold change vs veh, HNRNPA1 / RFU, RNF170 / Fold change vs veh, RNF170 / RFU, ZNF28 / Fold change vs veh, ZNF28 / RFU, RNGTT / Fold change vs veh, RNGTT / RFU, OGT / Fold change vs veh, OGT / RFU, BRD1 / Fold change vs veh, BRD1 / RFU, MARS / Fold change vs veh, MARS / RFU, ZNF655 / Fold change vs veh, ZNF655 / RFU, FAHD1 / Fold change vs veh, FAHD1 / RFU, BDP1 / Fold change vs veh, BDP1 / RFU, LRRCC1 / Fold change vs veh, LRRCC1 / RFU, ARID1A / Fold change vs veh, ARID1A / RFU, ZNF146 / Fold change vs veh, ZNF146 / RFU, ZNF330 / Fold change vs veh, ZNF330 / RFU, GPN3 / Fold change vs veh, GPN3 / RFU, C9orf123 / Fold change vs veh, C9orf123 / RFU, N4BP2L2 / Fold change vs veh, N4BP2L2 / RFU, ARFIP1 / Fold change vs veh, ARFIP1 / RFU, FAM179B / Fold change vs veh, FAM179B / RFU, BCL10 / Fold change vs veh, BCL10 / RFU, UHRF1BP1L / Fold change vs veh, UHRF1BP1L / RFU, BET1 / Fold change vs veh, BET1 / RFU, CNOT2 / Fold change vs veh, CNOT2 / RFU, ZNF268 / Fold change vs veh, ZNF268 / Fold change vs veh, ZNF507 / RFU, DGCR2 / Fold change vs veh, DGCR2 / RFU, WDSUB1 / Fold change vs veh, WDSUB1 / Fold change vs veh, HSP90B1 /// MIR3652 / RFU, ADSS / Fold change vs veh, ADSS / RFU, GK / Fold change vs veh, GK / RFU, ZNF148 / Fold change vs veh, ZNF148 / RFU, TAF9 / Fold change vs veh, TAF9 / RFU, SLC1A5 / Fold change vs veh, SLC1A5 / RFU, SLMO2 / Fold change vs veh, SLMO2 / RFU, ABCC4 / Fold change vs veh, ABCC4 / RFU, LOC101060439 /// RAP1B / Fold change vs veh, LOC101060439 /// RAP1B / RFU, RFX7 / Fold change vs veh, RFX7 / RFU, GTPBP10 / Fold change vs veh, GTPBP10 / RFU, CNEP1R1 / Fold change vs veh, CNEP1R1 / RFU, BIVM-ERCC5 /// ERCC5 / Fold change vs veh, BIVM-ERCC5 /// ERCC5 / RFU, ILF3 / Fold change vs veh, ILF3 / RFU 11762660_at / Fold change /veh 11762660_at / RFU VCAN (11757783_s_at) / Fold change /veh VCAN (11757783_s_at) / RFU DDX43 (11728927_at) / Fold change /veh DDX43 (11728927_at) / RFU KRT8 (11758188_x_at) / Fold change /veh KRT8 (11758188_x_at) / RFU NKD1 (11759106_at) / Fold change /veh NKD1 (11759106_at) / RFU SRD5A1 (11742802_a_at) / Fold change /veh SRD5A1 (11742802_a_at) / RFU TPSAB1 /// TPSB2 (11721975_s_at) / Fold change /veh TPSAB1 /// TPSB2 (11721975_s_at) / RFU GSTM3 (11746129_a_at) / Fold change /veh GSTM3 (11746129_a_at) / RFU IL23R (11737362_x_at) / Fold change /veh IL23R (11737362_x_at) / RFU TMEM51 (11727254_a_at) / Fold change /veh TMEM51 (11727254_a_at) / RFU PIWIL2 (11732686_x_at) / Fold change /veh PIWIL2 (11732686_x_at) / RFU ORM1 (11744905_x_at) / Fold change /veh ORM1 (11744905_x_at) / RFU CCDC152 (11743942_at) / Fold change /veh CCDC152 (11743942_at) / RFU ECM1 (11717891_a_at) / Fold change /veh ECM1 (11717891_a_at) / RFU IL23R (11748794_a_at) / Fold change /veh IL23R (11748794_a_at) / RFU TNFAIP8L3 (11732012_x_at) / Fold change /veh TNFAIP8L3 (11732012_x_at) / RFU MBOAT4 (11741988_at) / Fold change /veh MBOAT4 (11741988_at) / RFU 11764193_at / Fold change /veh 11764193_at / RFU TMEM53 (11763286_at) / Fold change /veh TMEM53 (11763286_at) / RFU MAGEB2 (11727129_at) / Fold change /veh MAGEB2 (11727129_at) / RFU TMEM200A (11744735_a_at) / Fold change /veh TMEM200A (11744735_a_at) / RFU CCDC152 (11751479_a_at) / Fold change /veh CCDC152 (11751479_a_at) / RFU FAM211A (11726209_a_at) / Fold change /veh FAM211A (11726209_a_at) / RFU RGS16 (11746705_a_at) / Fold change /veh RGS16 (11746705_a_at) / RFU VCAN (11755009_s_at) / Fold change /veh VCAN (11755009_s_at) / RFU RHOB (11743442_s_at) / Fold change /veh RHOB (11743442_s_at) / RFU RGS16 (11720943_a_at) / Fold change /veh RGS16 (11720943_a_at) / RFU RGS16 (11720944_at) / Fold change /veh RGS16 (11720944_at) / RFU, VPS4B / Fold change vs veh, VPS4B / RFU, CREB1 / Fold change vs veh, CREB1 / RFU, DNAJC13 / Fold change vs veh, DNAJC13 / RFU, GNAQ / Fold change vs veh, GNAQ / RFU, CDK5R1 / Fold change vs veh, CDK5R1 / RFU, ZRANB3 / Fold change vs veh, ZRANB3 / RFU, CUL4A / Fold change vs veh, CUL4A / RFU, CCNY / Fold change vs veh, CCNY / RFU, UFL1 / Fold change vs veh, UFL1 / RFU, COG3 / Fold change vs veh, COG3 / RFU, DIAPH2 / Fold change vs veh, DIAPH2 / RFU, SKA2 / Fold change vs veh, SKA2 / RFU, AFF3 / Fold change vs veh, AFF3 / RFU, LMF1 / Fold change vs veh, LMF1 / RFU, IPO11 / Fold change vs veh, IPO11 / RFU, DFFB / Fold change vs veh, DFFB / RFU, FOXP1 / Fold change vs veh, FOXP1 / RFU, CARD8 / Fold change vs veh, CARD8 / RFU, STRN3 / Fold change vs veh, STRN3 / RFU, ADK / Fold change vs veh, ADK / RFU, RASSF2 / Fold change vs veh, RASSF2 / RFU, WIPF1 / Fold change vs veh, WIPF1 / RFU, LARP1B / Fold change vs veh, LARP1B / RFU, RASA1 / Fold change vs veh, RASA1 / RFU, RB1 / Fold change vs veh, RB1 / RFU, PPFIA1 / Fold change vs veh, PPFIA1 / RFU, MAT2A / Fold change vs veh, MAT2A / RFU, CCT5 / Fold change vs veh, CCT5 / RFU, WDR92 / Fold change vs veh, WDR92 / RFU, CUX1 / Fold change vs veh, CUX1 / RFU, TTC7A / Fold change vs veh, TTC7A / RFU, TMEM135 / Fold change vs veh, TMEM135 / RFU, DEPTOR / Fold change vs veh, DEPTOR / RFU, CPM / Fold change vs veh, CPM / RFU, DNAJB6 / Fold change vs veh, DNAJB6 / RFU, CACNA2D3 / Fold change vs veh, CACNA2D3 / RFU, DTX4 / Fold change vs veh, DTX4 / RFU, TFCP2 / Fold change vs veh, TFCP2 / RFU, GMCL1 /// GMCL1P1 / Fold change vs veh, GMCL1 /// GMCL1P1 / RFU, AEBP2 / Fold change vs veh, AEBP2 / RFU, SNHG1 /// SNORD22 /// SNORD25 /// SNORD26 /// SNORD27 /// SNORD28 /// SNORD29 /// SNORD31 / Fold change vs veh, SNHG1 /// SNORD22 /// SNORD25 /// SNORD26 /// SNORD27 /// SNORD28 /// SNORD29 /// SNORD31 / Fold change (Aza/veh), C12orf56 (ProbeSet 11735607_a_at) / Fold change (ACY-1035/veh), C12orf56 (ProbeSet 11735607_a_at) / Fold change (Aza/veh), FGFR1OP (ProbeSet 11751329_s_at) / Fold change (ACY-1035/veh), FGFR1OP (ProbeSet 11751329_s_at) / Fold change (Aza/veh), VPS36 (ProbeSet 11739960_a_at) / Fold change (ACY-1035/veh), VPS36 (ProbeSet 11739960_a_at) / RFU SYPL1 (11715823_x_at) / Fold change /veh SYPL1 (11715823_x_at) / RFU IGFBP7 (11715501_s_at) / Fold change /veh IGFBP7 (11715501_s_at) / RFU REEP3 (11722064_at) / Fold change /veh REEP3 (11722064_at) / RFU IGLL1 (11728026_x_at) / Fold change /veh IGLL1 (11728026_x_at): dose or concentration left out as unconfirmed
Details: ProbeSet 11750457_a_at; LIST B

`Nc1ncn([C@@H]2O[C@H](CO)[C@@H](O)[C@H]2O)c(=O)n1` [azacitidine] was tested, and the “RFU, GTPBP10” value was 30.84 RFU.
